Assay results: PubChem BioAssay AID330 (DTP/NCI, 2004)
“And” between values parts separate entries of the source, which are not always exact repeats. Equal entries are not always repeated. Toxic doses and inconclusive results are not listed. Square brackets hold non-standard residues; d marks the D form. Peptide text beside a SMILES is read from it. * marks the point of attachment. ξ: configuration not given here. Cbz = O=C(OCc1ccccc1)*; ξM = CSCCC(N)C(=O)O

System: P388 leukemia ip, CD2F1 mice, survival T/C
Assay: NCI In Vivo Anticancer Drug Screen. Data for tumor model P388 Leukemia (intraperitoneal) in CD2F1 (CDF1) mice
Details: endpoint: median survival time, higher = longer survival
How it was run: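 Mice carrying the transplanted tumor received test compound or vehicle. Survival was recorded in each group, and the value is the treated-group measurement divided by that of the vehicle-treated control group.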

[1] = dose: 50.0 mg/kg/injection, schedule: Q01DX009 (ip), vehicle: saline
[2] = dose: 100.0 mg/kg/injection, schedule: Q01DX009 (ip), vehicle: saline
[3] = dose: 200.0 mg/kg/injection, schedule: Q01DX009 (ip), vehicle: saline
[4] = dose: 50.0 mg/kg/injection, schedule: Q01DX005 (ip), vehicle: saline with Tween-80
[5] = dose: 100.0 mg/kg/injection, schedule: Q01DX005 (ip), vehicle: saline with Tween-80
[6] = dose: 200.0 mg/kg/injection, schedule: Q01DX005 (ip), vehicle: saline with Tween-80
[7] = dose: 25.0 mg/kg/injection, schedule: Q01DX009 (ip), vehicle: saline
[8] = dose: 50.0 mg/kg/injection, schedule: Q01DX005 (ip), vehicle: distilled water + alcohol
[9] = dose: 100.0 mg/kg/injection, schedule: Q01DX005 (ip), vehicle: distilled water + alcohol
[10] = dose: 200.0 mg/kg/injection, schedule: Q01DX005 (ip), vehicle: distilled water + alcohol
[11] = dose: 50.0 mg/kg/injection, schedule: Q01DX005 (ip), vehicle: Klucel (hydroxypropylcellulose) (HPC)

Structure (SMILES): FC(F)(F)C1=C(C(F)(F)F)SP(Cl)(c2ccccc2)(c2ccccc2)S1
- T/C (dose: 50.0 mg/kg/injection, schedule: Q04DX003 (ip), vehicle: other): 107 % of control
- T/C (dose: 100.0 mg/kg/injection, schedule: Q04DX003 (ip), vehicle: other): 100 % of control
- T/C (dose: 200.0 mg/kg/injection, schedule: Q04DX003 (ip), vehicle: other): 93 % of control

Structure (SMILES): CC1(CC(C)(C)C2CCCCC2)OCCO1
- T/C (dose: 6.25 mg/kg/injection, schedule: Q01DX009 (ip), vehicle: water): 104 % of control
- T/C (dose: 12.5 mg/kg/injection, schedule: Q01DX009 (ip), vehicle: water): 108 % of control
- T/C (dose: 25.0 mg/kg/injection, schedule: Q01DX009 (ip), vehicle: water): 107 % of control
- T/C (dose: 50.0 mg/kg/injection, schedule: Q01DX009 (ip), vehicle: water): 109 % of control
- T/C (dose: 100.0 mg/kg/injection, schedule: Q01DX009 (ip), vehicle: water): 90 % of control

Structure (SMILES): NC(C(=O)O)C(C(F)(F)F)C(F)(F)F (configuration not stated)
- T/C [1]: 101 % of control
- T/C [2]: 102 % of control
- T/C [3]: 114 % of control

Structure (SMILES): O=[N+]([O-])c1ccc(N2c3ccccc3SC23CCCC3)c([N+](=O)[O-])c1
- T/C [4]: 100 % of control
- T/C [5]: 100 % of control
- T/C [6]: 99 % of control

Structure (SMILES): C/C(=N\NC(N)=Nc1ccc(Cl)cc1)c1ccc(Cl)c(Cl)c1
- T/C (dose: 25.0 mg/kg/injection, schedule: Q04DX002 (ip), vehicle: saline with Tween-80): 99 % of control
- T/C (dose: 50.0 mg/kg/injection, schedule: Q04DX002 (ip), vehicle: saline with Tween-80): 102 % of control
- T/C (dose: 100.0 mg/kg/injection, schedule: Q04DX002 (ip), vehicle: saline with Tween-80): 102 % of control

Structure (SMILES): COC(=S)NCCn1c([N+](=O)[O-])cnc1C
- T/C (dose: 100.0 mg/kg/injection, schedule: Q01DX001 (ip), vehicle: saline with Tween-80): 110 % of control
- T/C (dose: 200.0 mg/kg/injection, schedule: Q01DX001 (ip), vehicle: saline with Tween-80): 100 % of control
- T/C (dose: 400.0 mg/kg/injection, schedule: Q01DX001 (ip), vehicle: saline with Tween-80): 108 % of control

Structure (SMILES): CCC[CH2][Sn]1([CH2]CCC)[O]C(=O)CCSCCC(=O)[O]1
- T/C (dose: 1.56 mg/kg/injection, schedule: Q01DX005 (ip), vehicle: saline with Tween-80): 100 % of control and 106 % of control
- T/C (dose: 3.12 mg/kg/injection, schedule: Q01DX005 (ip), vehicle: saline with Tween-80): 109 % of control and 115 % of control and 121 % of control
- T/C (dose: 6.25 mg/kg/injection, schedule: Q01DX005 (ip), vehicle: saline with Tween-80): 107 % of control

Structure (SMILES): CN(C)CCC(=O)c1ccc(Cl)cc1Cl
- T/C [1]: 110 % of control
- T/C [2]: 100 % of control

Structure (SMILES): N#C[S-].N#C[S-].N#C[S-].N#C[S-].[Cr+6].[NH2-].[NH2-]
- T/C (dose: 25.0 mg/kg/injection, schedule: Q04DX003 (ip), vehicle: saline): 103 % of control
- T/C (dose: 50.0 mg/kg/injection, schedule: Q04DX003 (ip), vehicle: saline): 95 % of control

Structure (SMILES): C=C(CSc1ccc(C(=O)O)c([N+](=O)[O-])c1)c1ccc([N+](=O)[O-])cc1
- T/C (dose: 12.5 mg/kg/injection, schedule: Q01DX009 (ip), vehicle: saline): 105 % of control
- T/C [7]: 106 % of control
- T/C [1]: 99 % of control and 90 % of control

Structure (SMILES): C=C(C)C(=O)NCC(=O)Nc1ccc(CC(NC(C)=O)C(=O)OC)cc1 (configuration not stated)
- T/C [4]: 102 % of control
- T/C [5]: 100 % of control
- T/C [6]: 89 % of control

Structure (SMILES): Nc1ccc(N2CCSCC2)nc1
- T/C [1]: 104 % of control
- T/C [2]: 101 % of control
- T/C [3]: 96 % of control

Structure (SMILES): O=C1C(Cl)OC(c2ccccc2)=NN1c1ccccc1 (configuration not stated)
- T/C [8]: 97 % of control
- T/C [9]: 107 % of control
- T/C [10]: 97 % of control

Structure (SMILES): CSCCC(NC(=O)CNC(=O)CNC(=O)OCc1ccccc1)C(=O)O (stereo not drawn) (Cbz-Gly-Gly-[ξM]-OH)
- T/C [11]: 95 % of control
- T/C (dose: 100.0 mg/kg/injection, schedule: Q01DX005 (ip), vehicle: Klucel (hydroxypropylcellulose) (HPC)): 98 % of control
- T/C (dose: 200.0 mg/kg/injection, schedule: Q01DX005 (ip), vehicle: Klucel (hydroxypropylcellulose) (HPC)): 98 % of control

Structure (SMILES): CC1C2CCC3C4CC=C5CC(N(C)C)CCC5(C)C4CCC32CN1C (configuration not stated)
- T/C (dose: 12.5 mg/kg/injection, schedule: Q01DX005 (ip), vehicle: Klucel (hydroxypropylcellulose) (HPC)): 105 % of control
- T/C (dose: 12.5 mg/kg/injection, schedule: Q01DX005 (ip), vehicle: saline): 94 % of control
- T/C (dose: 25.0 mg/kg/injection, schedule: Q01DX005 (ip), vehicle: Klucel (hydroxypropylcellulose) (HPC)): 105 % of control
- T/C (dose: 25.0 mg/kg/injection, schedule: Q01DX005 (ip), vehicle: saline): 94 % of control
- T/C [7]: 105 % of control
- T/C [11]: 103 % of control and 113 % of control
- T/C (dose: 50.0 mg/kg/injection, schedule: Q01DX005 (ip), vehicle: saline): 106 % of control and 107 % of control
- T/C [1]: 88 % of control

Structure (SMILES): COc1cccc2c1C(=O)c1c(O)c3c(c(O)c1C2=O)C[C@@](O)(C(C)O)C[C@@H]3OC1CC(N)C(O)C(C)O1 (some centres not stated)
- T/C (dose: 1.08 mg/kg/injection, schedule: Q01DX009 (ip), vehicle: saline): 168 % of control
- T/C (dose: 1.8 mg/kg/injection, schedule: Q01DX009 (ip), vehicle: saline): 163 % of control and 172 % of control
- T/C (dose: 3.0 mg/kg/injection, schedule: Q01DX009 (ip), vehicle: saline): 159 % of control and 173 % of control
- T/C (dose: 3.0 mg/kg/injection, schedule: Q04DX003 (ip), vehicle: saline): 150 % of control
- T/C (dose: 5.0 mg/kg/injection, schedule: Q01DX009 (ip), vehicle: saline): 173 % of control and 195 % of control
- T/C (dose: 5.0 mg/kg/injection, schedule: Q04DX003 (ip), vehicle: saline): 154 % of control
- T/C (dose: 8.0 mg/kg/injection, schedule: Q01DX001 (ip), vehicle: saline): 154 % of control
- T/C (dose: 8.0 mg/kg/injection, schedule: Q01DX009 (ip), vehicle: saline): 150 % of control
- T/C (dose: 8.0 mg/kg/injection, schedule: Q04DX003 (ip), vehicle: saline): 163 % of control
- T/C (dose: 13.3 mg/kg/injection, schedule: Q01DX009 (ip), vehicle: saline): 90 % of control
- T/C (dose: 13.3 mg/kg/injection, schedule: Q04DX003 (ip), vehicle: saline): 172 % of control
- T/C (dose: 22.2 mg/kg/injection, schedule: Q01DX001 (ip), vehicle: saline): 181 % of control
- T/C (dose: 37.0 mg/kg/injection, schedule: Q01DX001 (ip), vehicle: saline): 163 % of control
- T/C (dose: 37.0 mg/kg/injection, schedule: Q04DX003 (ip), vehicle: saline): 100 % of control
- T/C (dose: 61.7 mg/kg/injection, schedule: Q01DX001 (ip), vehicle: saline): 90 % of control

Structure (SMILES): CC(c1ccccc1)c1cc(C(C)(C)C)c(O)c(C(C)(C)C)c1 (configuration not stated)
- T/C [8]: 100 % of control
- T/C [9]: 99 % of control
- T/C [10]: 93 % of control

Structure (SMILES): CC1CC2(CC(COc3ccccc3C(N)=O)OC2=O)C(=O)O1 (configuration not stated)
- T/C [4]: 100 % of control
- T/C [5]: 100 % of control
- T/C [6]: 97 % of control

Structure (SMILES): NCCn1[nH]c(=O)c2ncccc2c1=O
- T/C (dose: 60.0 mg/kg/injection, schedule: Q01DX005 (ip), vehicle: saline with Tween-80): 108 % of control
- T/C (dose: 120.0 mg/kg/injection, schedule: Q01DX005 (ip), vehicle: saline with Tween-80): 105 % of control

Structure (SMILES): N#Cc1c(-c2ccc(Cl)cc2)c(-c2ccc(Cl)cc2)nn(CCOC(=O)CCC(=O)OCCn2nc(-c3ccc(Cl)cc3)c(-c3ccc(Cl)cc3)c(C#N)c2=O)c1=O
- T/C (dose: 25.0 mg/kg/injection, schedule: Q04DX002 (ip), vehicle: distilled water + Tween-80): 95 % of control
- T/C (dose: 50.0 mg/kg/injection, schedule: Q04DX002 (ip), vehicle: distilled water + Tween-80): 89 % of control
- T/C (dose: 100.0 mg/kg/injection, schedule: Q04DX002 (ip), vehicle: distilled water + Tween-80): 91 % of control

Structure (SMILES): O=C(COc1ccc(Cl)cc1Cl)N1CCNC1=O
- T/C (dose: 50.0 mg/kg/injection, schedule: Q01DX009 (ip), vehicle: Klucel (hydroxypropylcellulose) (HPC)): 103 % of control
- T/C (dose: 100.0 mg/kg/injection, schedule: Q01DX009 (ip), vehicle: Klucel (hydroxypropylcellulose) (HPC)): 98 % of control
- T/C (dose: 200.0 mg/kg/injection, schedule: Q01DX009 (ip), vehicle: Klucel (hydroxypropylcellulose) (HPC)): 97 % of control

Structure (SMILES): CCOP(O)(=S)OCC.[Yb]
- T/C (dose: 100.0 mg/kg/injection, schedule: Q04DX003 (ip), vehicle: Klucel (hydroxypropylcellulose) (HPC)): 96 % of control
- T/C (dose: 200.0 mg/kg/injection, schedule: Q04DX003 (ip), vehicle: Klucel (hydroxypropylcellulose) (HPC)): 99 % of control
- T/C (dose: 400.0 mg/kg/injection, schedule: Q04DX003 (ip), vehicle: Klucel (hydroxypropylcellulose) (HPC)): 90 % of control
